Assays:
[1] = target: Ribosomal protein S6 kinase alpha-6 (Homo sapiens) (UniProt Q9UK32); test: Inhibition of RSK4 N-terminal domain1 at 10 uM
[2] = target: Cyclin-dependent kinase 11B (Homo sapiens) (UniProt P21127); test: Inhibition of CDC2L1 at 10 uM; values are per cent of control
[3] = target: Serine/threonine-protein kinase TAO2 (Homo sapiens) (UniProt Q9UL54); test: Inhibition of TAOK2 at 10 uM
[4] = target: Serine/threonine-protein kinase 32A (Homo sapiens) (UniProt Q8WU08); test: Inhibition of YANK1 at 10 uM; details: values are per cent of control
[5] = target: Ephrin type-B receptor 2 (Homo sapiens) (UniProt P29323); test: Inhibition of EPHB2 at 10 uM; values are per cent of control
[6] = target: Serine/threonine-protein kinase tousled-like 2 (Homo sapiens) (UniProt Q86UE8); test: Inhibition of TLK2 at 10 uM; details: values are per cent of control
[7] = target: Maternal embryonic leucine zipper kinase (Homo sapiens) (UniProt Q14680); test: Inhibition of MELK at 10 uM; details: values are per cent of control
[8] = target: Ephrin type-A receptor 4 (Homo sapiens) (UniProt P54764); test: Inhibition of EPHA4 at 10 uM; details: values are per cent of control
[9] = target: Ribosomal protein S6 kinase alpha-5 (Homo sapiens) (UniProt O75582); test: Inhibition of RPS6KA5 N-terminal domain1 at 10 uM
[10] = target: Serine/threonine-protein kinase RIO3 (Homo sapiens) (UniProt O14730); test: Inhibition of RIOK3 at 10 uM
[11] = target: Dual specificity mitogen-activated protein kinase kinase 4 (Homo sapiens) (UniProt P45985); test: Inhibition of MEK4 at 10 uM; details: values are per cent of control
[12] = target: Phosphatidylinositol 4,5-bisphosphate 3-kinase catalytic subunit beta isoform (Homo sapiens) (UniProt P42338); test: Inhibition of PIK3CB at 10 uM
[13] = target: Serine/threonine-protein kinase LATS1 (Homo sapiens) (UniProt O95835); test: Inhibition of LATS1 at 10 uM; values are per cent of control
[14] = target: Myosin light chain kinase family member 4 (Homo sapiens) (UniProt Q86YV6); test: Inhibition of MYLK4 at 10 uM
[15] = target: Tyrosine-protein kinase ITK/TSK (Homo sapiens) (UniProt Q08881); test: Inhibition of ITK at 10 uM; values are per cent of control
[16] = target: SRSF protein kinase 1 (Homo sapiens) (UniProt Q96SB4); test: Inhibition of SRPK1 at 10 uM
[17] = target: Activin receptor type-2B (Homo sapiens) (UniProt Q13705); test: Inhibition of ACVR2B at 10 uM; values are per cent of control
[18] = tested on: Epidermal growth factor receptor (Homo sapiens), P00533 [L858R,T790M]; test: Inhibition of EGFR L858R, T790M mutant at 10 uM; values are per cent of control
[19] = target: Mitogen-activated protein kinase 9 (Homo sapiens) (UniProt P45984); test: Inhibition of JNK2 at 10 uM; values are per cent of control
[20] = tested on: Phosphatidylinositol 4,5-bisphosphate 3-kinase catalytic subunit alpha isoform (Homo sapiens), P42336 [Q546K]; test: Inhibition of PIK3CA Q546K mutant at 10 uM
[21] = target: Serine/threonine-protein kinase/endoribonuclease IRE1 (Homo sapiens) (UniProt O75460); test: Inhibition of ERN1 at 10 uM; details: values are per cent of control
[22] = target: Serine/threonine-protein kinase 32B (Homo sapiens) (UniProt Q9NY57); test: Inhibition of YANK2 at 10 uM; details: values are per cent of control
[23] = target: Phosphatidylinositol 4,5-bisphosphate 3-kinase catalytic subunit delta isoform (Homo sapiens) (UniProt O00329); test: Inhibition of PIK3CD at 10 uM
[24] = target: Tyrosine-protein kinase ZAP-70 (Homo sapiens) (UniProt P43403); test: Inhibition of ZAP70 at 10 uM; details: values are per cent of control
[25] = target: Transient receptor potential cation channel subfamily M member 6 (Homo sapiens) (UniProt Q9BX84); test: Inhibition of TRPM6 at 10 uM; details: values are per cent of control
[26] = target: Serine/threonine-protein kinase ULK3 (Homo sapiens) (UniProt Q6PHR2); test: Inhibition of ULK3 at 10 uM; details: values are per cent of control
[27] = target: Tyrosine-protein kinase ABL1 (Homo sapiens) (UniProt P00519); test: Inhibition of non phosphorylated ABL1 at 10 uM; details: values are per cent of control
[28] = target: Serine/threonine-protein kinase MRCK beta (Homo sapiens) (UniProt Q9Y5S2); test: Inhibition of MRCKB at 10 uM
[29] = target: Dual specificity protein kinase TTK (Homo sapiens) (UniProt P33981); test: Inhibition of TTK at 10 uM; details: values are per cent of control
[30] = target: Cyclin-dependent kinase 8 (Homo sapiens) (UniProt P49336); test: Inhibition of CDK8 at 10 uM; values are per cent of control
[31] = target: Macrophage colony-stimulating factor 1 receptor (Homo sapiens) (UniProt P07333); test: Inhibition of CSF1R at 10 uM; details: values are per cent of control
[32] = target: Serine/threonine-protein kinase 17A (Homo sapiens) (UniProt Q9UEE5); test: Inhibition of DRAK1 at 10 uM; values are per cent of control
[33] = target: Casein kinase I isoform gamma-2 (Homo sapiens) (UniProt P78368); test: Inhibition of CSNK1G2 at 10 uM; values are per cent of control
[34] = target: Phosphorylase b kinase gamma catalytic chain, skeletal muscle/heart isoform (Homo sapiens) (UniProt Q16816); test: Inhibition of PHKG1 at 10 uM
[35] = target: cAMP-dependent protein kinase catalytic subunit PRKX (Homo sapiens) (UniProt P51817); test: Inhibition of PRKX at 10 uM
[36] = target: Serine/threonine-protein kinase PLK1 (Homo sapiens) (UniProt P53350); test: Inhibition of PLK1 at 10 uM
[37] = tested on: Serine/threonine-protein kinase B-raf (Homo sapiens), P15056 [V600E]; test: Inhibition of BRAF V600E mutant at 10 uM; details: values are per cent of control
[38] = tested on: Hepatocyte growth factor receptor (Homo sapiens), P08581 [Y1235D]; test: Inhibition of MET Y1235D mutant at 10 uM
[39] = target: Serine/threonine-protein kinase TNNI3K (Homo sapiens) (UniProt Q59H18); test: Inhibition of TNNI3K at 10 uM; details: values are per cent of control
[40] = target: Tyrosine-protein kinase Lyn (Homo sapiens) (UniProt P07948); test: Inhibition of LYN at 10 uM; values are per cent of control

Chain of Phosphatidylinositol 4,5-bisphosphate 3-kinase catalytic subunit delta isoform (Homo sapiens) (O00329 whole entry, canonical isoform): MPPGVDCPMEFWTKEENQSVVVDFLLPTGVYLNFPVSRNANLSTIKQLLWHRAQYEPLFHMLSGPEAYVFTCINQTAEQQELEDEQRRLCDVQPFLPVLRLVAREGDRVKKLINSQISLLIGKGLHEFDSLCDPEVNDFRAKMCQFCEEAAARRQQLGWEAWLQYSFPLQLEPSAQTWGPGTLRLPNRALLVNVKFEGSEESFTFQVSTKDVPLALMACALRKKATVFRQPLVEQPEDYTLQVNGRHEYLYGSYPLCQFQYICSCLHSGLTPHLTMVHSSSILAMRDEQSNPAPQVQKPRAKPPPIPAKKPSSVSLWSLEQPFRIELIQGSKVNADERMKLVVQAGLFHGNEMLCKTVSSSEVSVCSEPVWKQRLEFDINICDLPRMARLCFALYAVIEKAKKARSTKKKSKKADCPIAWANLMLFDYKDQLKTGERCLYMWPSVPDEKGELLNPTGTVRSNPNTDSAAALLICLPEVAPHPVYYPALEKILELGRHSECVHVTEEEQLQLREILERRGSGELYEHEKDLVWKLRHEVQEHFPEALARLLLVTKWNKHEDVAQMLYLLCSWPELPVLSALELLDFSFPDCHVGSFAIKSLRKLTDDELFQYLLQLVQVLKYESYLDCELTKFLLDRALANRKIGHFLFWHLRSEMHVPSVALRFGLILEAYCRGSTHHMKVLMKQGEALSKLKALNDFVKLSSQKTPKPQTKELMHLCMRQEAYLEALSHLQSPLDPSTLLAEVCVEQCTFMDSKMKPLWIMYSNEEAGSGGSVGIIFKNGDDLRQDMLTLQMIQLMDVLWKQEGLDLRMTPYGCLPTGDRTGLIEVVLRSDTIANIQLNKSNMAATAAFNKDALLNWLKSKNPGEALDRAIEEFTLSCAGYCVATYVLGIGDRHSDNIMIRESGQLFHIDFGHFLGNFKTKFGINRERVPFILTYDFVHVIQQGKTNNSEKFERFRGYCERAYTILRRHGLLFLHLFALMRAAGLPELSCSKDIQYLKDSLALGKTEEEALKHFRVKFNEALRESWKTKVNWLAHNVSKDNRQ
Chain of Tyrosine-protein kinase ZAP-70 (Homo sapiens) (P43403 whole entry): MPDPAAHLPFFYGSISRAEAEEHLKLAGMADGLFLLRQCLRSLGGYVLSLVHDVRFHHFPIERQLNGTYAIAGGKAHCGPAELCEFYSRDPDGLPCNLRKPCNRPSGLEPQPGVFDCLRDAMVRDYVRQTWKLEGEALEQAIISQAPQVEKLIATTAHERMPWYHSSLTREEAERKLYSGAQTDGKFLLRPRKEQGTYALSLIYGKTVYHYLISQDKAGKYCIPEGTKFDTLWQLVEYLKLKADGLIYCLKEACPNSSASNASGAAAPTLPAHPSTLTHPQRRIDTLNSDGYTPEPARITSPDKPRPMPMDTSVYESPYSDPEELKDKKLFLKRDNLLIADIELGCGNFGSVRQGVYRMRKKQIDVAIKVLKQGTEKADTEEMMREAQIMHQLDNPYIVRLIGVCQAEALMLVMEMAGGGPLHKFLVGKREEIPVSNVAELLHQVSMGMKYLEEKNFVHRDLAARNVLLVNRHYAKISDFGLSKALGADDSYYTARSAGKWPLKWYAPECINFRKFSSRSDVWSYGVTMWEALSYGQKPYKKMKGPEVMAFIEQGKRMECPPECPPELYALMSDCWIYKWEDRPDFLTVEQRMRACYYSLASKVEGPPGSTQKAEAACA
Chain of Phosphatidylinositol 4,5-bisphosphate 3-kinase catalytic subunit beta isoform (Homo sapiens) (P42338 whole entry, looked up, canonical isoform): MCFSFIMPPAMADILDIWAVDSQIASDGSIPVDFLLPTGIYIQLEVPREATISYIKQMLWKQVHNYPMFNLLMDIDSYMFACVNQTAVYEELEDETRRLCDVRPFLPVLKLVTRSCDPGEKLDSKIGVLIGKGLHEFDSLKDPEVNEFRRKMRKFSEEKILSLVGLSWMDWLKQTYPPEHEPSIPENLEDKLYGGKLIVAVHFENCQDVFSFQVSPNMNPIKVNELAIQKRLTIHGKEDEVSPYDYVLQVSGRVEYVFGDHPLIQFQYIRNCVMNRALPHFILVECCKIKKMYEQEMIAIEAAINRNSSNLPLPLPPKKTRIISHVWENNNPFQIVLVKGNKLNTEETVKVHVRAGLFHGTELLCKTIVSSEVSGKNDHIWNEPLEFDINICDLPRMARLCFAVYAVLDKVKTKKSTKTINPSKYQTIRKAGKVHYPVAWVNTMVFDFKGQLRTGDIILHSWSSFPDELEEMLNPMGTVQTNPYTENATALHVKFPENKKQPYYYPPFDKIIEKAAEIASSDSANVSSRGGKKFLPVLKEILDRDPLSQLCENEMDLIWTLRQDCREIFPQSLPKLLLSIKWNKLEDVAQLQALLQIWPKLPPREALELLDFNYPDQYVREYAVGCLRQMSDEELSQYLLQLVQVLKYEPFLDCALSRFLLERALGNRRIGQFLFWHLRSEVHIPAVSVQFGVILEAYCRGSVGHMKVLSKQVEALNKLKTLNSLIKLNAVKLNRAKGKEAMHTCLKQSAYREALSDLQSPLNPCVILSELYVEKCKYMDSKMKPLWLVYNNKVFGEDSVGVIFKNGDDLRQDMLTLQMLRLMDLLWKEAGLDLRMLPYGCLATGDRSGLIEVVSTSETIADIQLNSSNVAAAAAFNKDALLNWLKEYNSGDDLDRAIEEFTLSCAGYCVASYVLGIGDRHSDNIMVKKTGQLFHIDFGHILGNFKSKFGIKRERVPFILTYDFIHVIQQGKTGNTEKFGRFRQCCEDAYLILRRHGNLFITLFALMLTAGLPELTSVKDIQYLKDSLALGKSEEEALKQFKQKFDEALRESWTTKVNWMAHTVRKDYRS
Chain of Serine/threonine-protein kinase TAO2 (Homo sapiens) (Q9UL54 whole entry): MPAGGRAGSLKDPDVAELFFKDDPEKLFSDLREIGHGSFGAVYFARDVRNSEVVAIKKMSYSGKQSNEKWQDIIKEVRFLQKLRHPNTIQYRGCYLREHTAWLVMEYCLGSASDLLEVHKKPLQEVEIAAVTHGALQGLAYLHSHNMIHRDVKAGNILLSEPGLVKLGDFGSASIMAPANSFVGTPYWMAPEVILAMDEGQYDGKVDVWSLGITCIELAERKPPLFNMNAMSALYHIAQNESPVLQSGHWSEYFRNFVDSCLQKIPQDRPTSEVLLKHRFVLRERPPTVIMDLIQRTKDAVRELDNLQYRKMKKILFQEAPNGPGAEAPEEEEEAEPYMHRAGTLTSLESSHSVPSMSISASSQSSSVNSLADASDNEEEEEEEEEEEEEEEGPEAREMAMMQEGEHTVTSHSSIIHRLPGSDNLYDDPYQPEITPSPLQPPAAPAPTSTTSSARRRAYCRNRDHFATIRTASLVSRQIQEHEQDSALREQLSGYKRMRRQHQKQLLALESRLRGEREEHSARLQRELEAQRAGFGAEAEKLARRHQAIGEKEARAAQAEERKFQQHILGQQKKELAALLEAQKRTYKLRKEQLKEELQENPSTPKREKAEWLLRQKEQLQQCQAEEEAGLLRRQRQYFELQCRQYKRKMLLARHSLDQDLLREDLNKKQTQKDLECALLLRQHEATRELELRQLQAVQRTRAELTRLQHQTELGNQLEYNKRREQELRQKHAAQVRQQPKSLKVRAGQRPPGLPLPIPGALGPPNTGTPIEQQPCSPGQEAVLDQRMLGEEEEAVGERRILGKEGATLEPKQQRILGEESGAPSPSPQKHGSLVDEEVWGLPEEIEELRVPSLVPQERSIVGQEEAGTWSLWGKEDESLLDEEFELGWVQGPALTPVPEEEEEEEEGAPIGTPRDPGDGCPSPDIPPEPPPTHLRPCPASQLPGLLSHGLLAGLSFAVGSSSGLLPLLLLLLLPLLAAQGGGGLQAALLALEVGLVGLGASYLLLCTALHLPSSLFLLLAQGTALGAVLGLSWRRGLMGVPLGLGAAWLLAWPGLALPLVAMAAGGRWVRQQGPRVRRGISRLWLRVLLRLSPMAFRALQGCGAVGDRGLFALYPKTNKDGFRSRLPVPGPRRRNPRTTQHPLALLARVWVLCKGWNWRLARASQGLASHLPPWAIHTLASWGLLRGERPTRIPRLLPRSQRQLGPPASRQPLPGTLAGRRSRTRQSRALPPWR
Chain of Casein kinase I isoform gamma-2 (Homo sapiens) (P78368 whole entry, looked up, canonical isoform): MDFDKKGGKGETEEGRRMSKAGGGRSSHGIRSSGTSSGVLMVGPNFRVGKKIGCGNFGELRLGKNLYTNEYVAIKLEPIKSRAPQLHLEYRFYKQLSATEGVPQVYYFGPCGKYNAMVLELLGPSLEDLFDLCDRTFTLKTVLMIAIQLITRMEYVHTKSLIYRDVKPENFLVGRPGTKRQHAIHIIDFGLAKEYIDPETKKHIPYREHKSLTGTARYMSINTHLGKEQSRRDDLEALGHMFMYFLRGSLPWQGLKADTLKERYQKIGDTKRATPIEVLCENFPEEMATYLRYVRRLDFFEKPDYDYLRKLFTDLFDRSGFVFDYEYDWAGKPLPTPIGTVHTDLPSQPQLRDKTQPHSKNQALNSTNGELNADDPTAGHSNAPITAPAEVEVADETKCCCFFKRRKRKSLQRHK
Chain of Serine/threonine-protein kinase RIO3 (Homo sapiens) (O14730 whole entry): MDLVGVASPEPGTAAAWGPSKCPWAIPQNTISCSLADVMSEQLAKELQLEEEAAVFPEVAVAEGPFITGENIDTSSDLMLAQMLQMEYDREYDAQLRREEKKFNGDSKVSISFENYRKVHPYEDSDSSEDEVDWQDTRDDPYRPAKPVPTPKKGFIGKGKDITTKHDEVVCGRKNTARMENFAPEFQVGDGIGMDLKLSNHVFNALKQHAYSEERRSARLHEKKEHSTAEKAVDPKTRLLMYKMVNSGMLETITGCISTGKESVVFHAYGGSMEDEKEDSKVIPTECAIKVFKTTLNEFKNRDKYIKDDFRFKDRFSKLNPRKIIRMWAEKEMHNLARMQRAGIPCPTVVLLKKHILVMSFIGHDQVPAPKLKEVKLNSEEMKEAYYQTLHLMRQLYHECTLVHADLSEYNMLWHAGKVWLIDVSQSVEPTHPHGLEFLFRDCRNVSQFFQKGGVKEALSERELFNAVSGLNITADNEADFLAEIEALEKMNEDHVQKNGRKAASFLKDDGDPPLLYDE

Row | SMILES | inhibition [1] | level, % of control [2] | inhibition [3] | residual binding, % of control [4] | level, % of control [5] | residual binding, % of control [6] | residual binding, % of control [7] | residual binding, % of control [8] | inhibition [9] | inhibition [10] | residual binding, % of control [11] | inhibition [12] | level, % of control [13] | inhibition [14] | level, % of control [15] | inhibition [16] | level, % of control [17] | level, % of control [18] | level, % of control [19] | inhibition [20] | also measured
1 | CCN1CCN(Cc2ccc(NC(=O)c3ccc(C)c(C#Cc4cccnc4)c3)cc2C(F)(F)F)CC1 | 47% | 2.5% | 0.15% | 81% | 0.1% | 100% | 8.1% | 0% | 59% | 70% | 43% | 100% | 20% | 68% | 44% | 100% | 96% | 100% | 0% | 100% | residual binding, % of control [21]: 51%; residual binding, % of control [22]: 100%; inhibition [23]: 76%; residual binding, % of control [24]: 62%; residual binding, % of control [25]: 49%; residual binding, % of control [26]: 0.25%; residual binding, % of control [27]: 0%; inhibition [28]: 88%; residual binding, % of control [29]: 16%; level, % of control [30]: 8.2%; residual binding, % of control [31]: 0%; % of control [32]: 87%; level, % of control [33]: 100%; inhibition [34]: 88%; inhibition [35]: 3.6%; inhibition [36]: 58%; residual binding, % of control [37]: 0.05%; inhibition [38]: 61%; residual binding, % of control [39]: 0%; level, % of control [40]: 0.05%
2 | CCN1CCN(Cc2ccc(NC(=O)c3ccc(C)c(C#Cc4cnc5[nH]ccc5c4)c3)cc2C(F)(F)F)CC1 | 28% | 0% | 0% | 98% | 0.6% | 100% | 6.1% | 0.25% | 20% | 38% | 25% | 85% | 3.4% | 40% | 2.2% | 100% | 23% | 100% | 0% | 100% | residual binding, % of control [21]: 54%; residual binding, % of control [22]: 100%; inhibition [23]: 76%; residual binding, % of control [24]: 28%; residual binding, % of control [25]: 64%; residual binding, % of control [26]: 0.25%; residual binding, % of control [27]: 0.1%; inhibition [28]: 67%; residual binding, % of control [29]: 2%; level, % of control [30]: 18%; residual binding, % of control [31]: 0%; % of control [32]: 24%; level, % of control [33]: 14%; inhibition [34]: 100%; inhibition [35]: 19%; inhibition [36]: 56%; residual binding, % of control [37]: 0.1%; inhibition [38]: 4.9%; residual binding, % of control [39]: 0%; level, % of control [40]: 0.05%

— ChEMBL document CHEMBL1177794, “Broad spectrum alkynyl inhibitors of T315I Bcr-Abl” (Bioorg Med Chem Lett, 2010)
